According to publication PMC4844176 (Xenobiotica; the fate of foreign compounds in biological …, 2015):
Like-named read-outs stand apart in the source and are kept apart here.

Columns and labels:
[1] = target: T1, UGT1A9 (Homo sapiens, UniProt O60656); test: Screening for aprepitant glucuronidation, UGT1A9 Supersomes; format: in vitro ADME; settings: UGT1A9, 5 and 250 µM aprepitant
T1 sequence (O60656 26-530): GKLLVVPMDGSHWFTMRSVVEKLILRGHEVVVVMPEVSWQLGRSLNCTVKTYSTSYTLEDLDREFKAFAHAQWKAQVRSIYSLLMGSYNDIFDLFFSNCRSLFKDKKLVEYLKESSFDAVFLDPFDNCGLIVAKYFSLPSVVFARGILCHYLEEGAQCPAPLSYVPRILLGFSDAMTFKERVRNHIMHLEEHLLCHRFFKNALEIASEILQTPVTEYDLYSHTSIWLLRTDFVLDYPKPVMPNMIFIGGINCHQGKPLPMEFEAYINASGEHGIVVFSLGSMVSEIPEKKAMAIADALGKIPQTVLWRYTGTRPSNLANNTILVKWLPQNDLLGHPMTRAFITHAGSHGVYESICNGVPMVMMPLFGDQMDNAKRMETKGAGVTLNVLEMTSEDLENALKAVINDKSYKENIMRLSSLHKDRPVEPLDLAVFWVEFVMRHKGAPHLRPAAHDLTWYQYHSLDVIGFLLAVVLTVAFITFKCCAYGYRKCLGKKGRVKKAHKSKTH

[2] = target: T2, UGT2B10 (Homo sapiens, UniProt P36537); test: Screening for aprepitant glucuronidation, UGT2B10 Supersomes; format: in vitro ADME; settings: UGT2B10, 5 and 250 µM aprepitant
T2 sequence (P36537 24-528): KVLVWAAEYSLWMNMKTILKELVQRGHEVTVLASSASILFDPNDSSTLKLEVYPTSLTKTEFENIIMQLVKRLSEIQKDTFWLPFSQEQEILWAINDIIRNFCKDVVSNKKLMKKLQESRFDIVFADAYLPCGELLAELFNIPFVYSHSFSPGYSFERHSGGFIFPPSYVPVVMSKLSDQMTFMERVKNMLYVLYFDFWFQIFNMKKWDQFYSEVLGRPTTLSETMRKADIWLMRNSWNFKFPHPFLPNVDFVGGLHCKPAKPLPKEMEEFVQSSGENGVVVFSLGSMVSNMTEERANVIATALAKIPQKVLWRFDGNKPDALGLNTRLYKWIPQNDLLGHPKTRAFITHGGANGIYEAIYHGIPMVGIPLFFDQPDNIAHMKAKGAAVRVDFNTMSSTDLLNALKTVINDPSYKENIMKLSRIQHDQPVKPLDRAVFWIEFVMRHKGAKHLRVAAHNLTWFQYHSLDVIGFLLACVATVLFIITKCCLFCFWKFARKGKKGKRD

[3] = target: T3, UGT2B15 (Homo sapiens, UniProt P54855); test: Screening for aprepitant glucuronidation, UGT2B15 Supersomes; format: in vitro ADME; settings: UGT2B15, 5 and 250 µM aprepitant
T3 sequence (P54855 24-530): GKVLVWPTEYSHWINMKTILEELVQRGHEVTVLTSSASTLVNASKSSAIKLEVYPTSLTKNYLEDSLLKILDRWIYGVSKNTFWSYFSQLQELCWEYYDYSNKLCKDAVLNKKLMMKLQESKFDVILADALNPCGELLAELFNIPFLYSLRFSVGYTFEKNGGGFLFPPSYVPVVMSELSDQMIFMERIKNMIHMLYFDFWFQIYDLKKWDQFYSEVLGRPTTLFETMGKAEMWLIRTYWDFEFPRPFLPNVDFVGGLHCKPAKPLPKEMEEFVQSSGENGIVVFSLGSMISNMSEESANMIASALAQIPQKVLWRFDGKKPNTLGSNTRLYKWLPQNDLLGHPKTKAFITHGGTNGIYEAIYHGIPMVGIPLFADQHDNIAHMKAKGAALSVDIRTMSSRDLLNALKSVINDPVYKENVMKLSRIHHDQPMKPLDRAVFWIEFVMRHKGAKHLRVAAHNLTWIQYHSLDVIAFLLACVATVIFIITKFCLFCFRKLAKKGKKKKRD

[4] = target: T4, UGT1A4 (Homo sapiens, UniProt P22310); test: Inhibition by aprepitant of UGT1A4; format: in vitro ADME; settings: UGT1A4 enzyme, probe imipramine
T4 sequence (P22310 29-534): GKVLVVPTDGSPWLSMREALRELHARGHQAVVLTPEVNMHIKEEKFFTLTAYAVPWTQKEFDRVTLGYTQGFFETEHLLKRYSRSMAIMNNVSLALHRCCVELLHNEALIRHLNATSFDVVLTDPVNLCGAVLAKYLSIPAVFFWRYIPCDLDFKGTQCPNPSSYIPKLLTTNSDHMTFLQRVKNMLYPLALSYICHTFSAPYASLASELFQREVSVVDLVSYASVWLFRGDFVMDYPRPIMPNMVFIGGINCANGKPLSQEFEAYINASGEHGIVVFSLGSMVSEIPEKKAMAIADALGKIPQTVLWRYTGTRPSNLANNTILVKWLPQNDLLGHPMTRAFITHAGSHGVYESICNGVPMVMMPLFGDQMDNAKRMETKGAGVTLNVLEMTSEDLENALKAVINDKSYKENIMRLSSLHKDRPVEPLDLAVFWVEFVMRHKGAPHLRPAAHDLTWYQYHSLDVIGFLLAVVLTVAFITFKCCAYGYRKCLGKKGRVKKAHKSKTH

[5] = target: T4, UGT1A4; settings: pH 7.5; for velocity of AP-G formation: 60 min

SMILES: C[C@@H](O[C@H]1OCCN(Cc2n[nH]c(=O)[nH]2)[C@H]1c1ccc(F)cc1)c1cc(C(F)(F)F)cc(C(F)(F)F)c1 [aprepitant, Aprepitant]
- AP-G formation [1]: not detected
- AP-G formation [2]: not detected
- AP-G formation [3]: not detected
- inhibition at 60 min, 10 µM [4]: 18%
- velocity of AP-G formation ([5]; 5 µM): 124.6 ± 6.4 fmol/min/mg protein
- velocity of AP-G formation ([5]; 250 µM): 2,710 ± 157.2 fmol/min/mg protein
- CLint ([5]; recombinant enzyme): 28 µl/min/µg protein
